{"source": "patent US11738072B2", "about": "“Tumor vaccine and uses thereof” (WestVac Biopharma Co., Ltd., priority 2017, dated 2023)", "key": {"[1]": {"test_system": "bone marrow-derived dendritic cells (BMDC)", "assay": "FITC-Dextran uptake by BMDC, flow cytometry", "assay_type": "cell-based, mouse", "settings": "BMDC stimulated 24 h by CT26 cells treated with sample", "experimental": "a. Bone marrow cells were obtained from the femur and tibia of mouse, sieved and collected in a centrifuge tube, centrifuged at 280 g and at room temperature for 5 min, and the supernatant was discarded.\nb. 10 ml of red cell lysate was added to the cells described in Step a, standing for 3 min at room temperature, centrifuged at 280 g and at room temperature for 5 min, and the supernatant was discarded.\nc. The bone marrow cells described in Step b were washed twice with PRMI-1640 medium, centrifuged at 280 g and at room temperature for 10 min, live cell count was carried out, the cell concentration was adjusted to 1×10^6 cells/ml by RPMI-1640 complete medium.\nd. In Step c, the recombinant mouse GM-CS with a final concentration of 10 ng/ml was added and 4 ml/well cell suspension was inoculated into a 6-well plate, and cultured in a 37° C., 5% CO2 incubator. When cell colonies grew on the bottom of the plate, the medium was pipetted, washed once with the medium, and 1640 complete medium containing 10 ng/ml of GM-CSF was added to each well.\ne. […]\nd. Test and analysis of fluorescence intensity of BMDC based on flow cytometry."}, "[2]": {"test_system": "lysosomes of A549 cells", "assay": "Lysosomal membrane permeability by CathepsinB intracellular localization", "assay_type": "cell-based", "settings": "3 h, immunofluorescence, confocal microscope", "experimental": "(1) Inoculation of A549 cells in plates: round sterilized cell slides were placed at the bottom of a 6-well plate, inoculated A549 cells into the 6-well plate as per 1×10^5 cells/well, 2 ml of medium was added to each well, and incubated overnight.\n(2) The medium (blank control group), pMVA-1 plasmid (control group PMVA), DOTAP cationic lipid (control group DOTAP) and pMVA-1/DOTAP complex (experimental group PMVA-DOTAP) were added to A549 cells cultured in the Step (1), and incubated at 37° C. for 3 h.\n(3) A549 cells treated by different groups in Step (2) were washed twice with PBS, stabilized with ice methanol for 3 min, washed twice with PBS, and sealed with PBST containing 0.3% Triton of 5% FBS for 20 min.\n(4) The cells in Step (3) were washed once with PBS, and the human CathepsinB antibody (made by Abcam) was diluted at a ratio of 1:300. Incubating at room temperature for 1 h, washing with PBS three times for 5 minutes each time, adding 1:1000 fluorescent secondary antibody, and incubating at room temperature for 1 h in the dark.\n(5) The cells in Step (4) were washed with PBS for three times, the films were washed with ultrapure water to remove excess water, and sealed with anti-fluorescence quencher, then cured for 6 h. Fluorescent cells were observed under a confocal microscope and the images were saved."}, "[3]": {"test_system": "mouse sarcoma cell line S180", "assay": "Subcutaneous S180 sarcoma model in mice", "assay_type": "in vivo, KM mice", "settings": "2.5 μg pMVA-1 and/or 25 μg DOTAP sc every 3 days x5; 21 days after inoculation", "experimental": "KM mice aged 6-8 weeks were raised. The mouse sarcoma cell line S180 cultured to the logarithmic growth phase was prepared into a cell suspension, and mouse subcutaneous tumor was modeled by subcutaneous injection in the right axilla of each mouse. The number of cells injected into each mouse was 1×10^7, and the injection system was 200 μl for each mouse.\nOn the 5th day after inoculation of S180 sarcoma cells, when the tumor could be palpated, 40 tumor-bearing mice were randomly divided into 4 groups according to Table 12: i.e. negative control group (NS), DOTAP control group, pMVA-1 control group, and treatment group pMVA-1/DOTAP group. Then, the mice were subcutaneously administrated according to Table 12: 2.5 μg of plasmid pMVA-1 for each mouse in the pMVA-1 control group; 25 μg of DOTAP for each mouse in DOTAP control group; 2.5 μg of DNA and 25 μg of DOTAP for each mouse in the treatment group of the pMVA-1/DOTAP complex group; that is, the mass ratio of plasmid DNA to DOTAP was 1:10. After that, they were administrated every three days for a total of 5 times. The mice were killed and the tumor-free rate of the mice was counted 21 days after inoculation of the tumor."}, "[4]": {"test_system": "A549 cells", "assay": "A549 cell death test by flow cytometry", "assay_type": "cell-based", "settings": "A549, 24 h, compared with blank control group", "experimental": "The method was the same as that in 1(1).\nThe method was the same as that in 1(2), wherein, the concentration of DOTAP cationic lipid was 4 μg/ml, 8 μg/ml, 16 μg/ml and 32 μg/ml respectively, and the concentration of the pMVA-1/DOTAP complex was expressed by that of DOTAP cationic lipid.\nThe method was the same as that in 1(3).\na. A549 cells treated by different samples in the Step (3) were washed twice with cold PBS, and resuspended with 1× binding buffer for preparing a cell suspension with a density of 1×10^6 cells/ml;\nb. 100 μl of A549 cell suspension prepared in Step a was pipetted into the flow test tube;\nc. 5 μl of FITC Annexin V and 5 μl of PI were added to the flow test tube in Step b, mixed gently, and incubated at room temperature for 15 min in the dark;\nd. 400 μl of 1× binding buffer was added to the flow test tube in Step c and tested by flow cytometry;"}}}
{"compound": "CCCCCCCC/C=C\\CCCCCCCC(=O)OCC(C[N+](C)(C)C)OC(=O)CCCCCCC/C=C\\CCCCCCCC", "note": "(stereo not shown) [DOTAP, 1,2-dioleoyl-3-trimethylammonium-propane]", "values": [{"measurement": "FITC average fluorescence intensity of CD11c positive DC", "setting": "[1]", "result": "decreased significantly"}, {"measurement": "distribution of Cathepsin B in A549 cells", "setting": "[2]", "result": "distributed in dots"}, {"measurement": "tumor-free rate of mice", "setting": "[3]", "result": 20, "unit": "%"}, {"measurement": "Annexin-V single positive, PI single positive and PI/Annexin-V double positive cells (PI uptake and Annexin-V)", "setting": "[4]", "result": "did not increase significantly"}]}
